Assay results: ChEMBL document CHEMBL1201862, “PubChem BioAssay data set” (2004)
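Values below derive from 48-hour exposures of cells grown in 96-well plates, with endpoints linearly interpolated between the two concentrations bracketing the appropriate inhibition level. At the GI50, growth is halved.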 The source made the active and inactive calls. Rule as the data show it: active = GI50 up to about 1.1 µM and inactive = higher.

Experiments:
Test in all cases: DTP human tumour cell line panel, 48 h
HOP-62 = test system: HOP-62
UACC-62 = test system: UACC-62
HT-29 = test system: HT-29
SK-OV-3 = test system: SK-OV-3
SK-MEL-28 = test system: SK-MEL-28
MCF7 = test system: MCF7
A498 = test system: A498
786-0 = test system: 786-0
SW-620 = test system: SW-620
HCT-116 = test system: HCT-116
HCT-15 = test system: HCT-15
SK-MEL-2 = test system: SK-MEL-2
K562 = test system: K562
OVCAR-4 = test system: OVCAR-4
T47D = test system: T47D
EKVX = test system: EKVX
RPMI-8226 = test system: RPMI-8226
MDA-MB-231 = test system: MDA-MB-231
HL-60 = test system: HL-60

| SMILES | GI50 (HOP-62) | GI50 (UACC-62) | GI50 (HT-29) | GI50 (SK-OV-3) | GI50 (SK-MEL-28) | GI50 (MCF7) | GI50 (A498) | GI50 (786-0) | GI50 (SW-620) | GI50 (HCT-116) | GI50 (HCT-15) | GI50 (SK-MEL-2) | GI50 (K562) | GI50 (OVCAR-4) | GI50 (T47D) | GI50 (EKVX) | GI50 (RPMI-8226) | GI50 (MDA-MB-231) | GI50 (HL-60) |
| --- | --- | --- | --- | --- | --- | --- | --- | --- | --- | --- | --- | --- | --- | --- | --- | --- | --- | --- | --- |
| N#CCCC1(CCC#N)CCCCCCC(CCC#N)(CCC#N)C(=O)C1=O | > 100 µM (inactive) | > 100 µM (inactive) | > 100 µM (inactive) | > 100 µM (inactive) | > 100 µM (inactive) | 70.5 µM (inactive) | 50 µM (inactive) | > 100 µM (inactive) | > 100 µM (inactive) | > 100 µM (inactive) | > 100 µM | > 100 µM (inactive) | > 100 µM (inactive) | > 100 µM (inactive) | 11.9 µM (inactive) | > 100 µM (inactive) | – | – | – |
| O=C(c1cscc1CCc1ccccc1)c1cscc1CCc1ccccc1 | > 100 µM (inactive) | > 100 µM (inactive) | – | > 100 µM (inactive) | > 100 µM (inactive) | > 100 µM (inactive) | > 100 µM (inactive) | > 100 µM (inactive) | > 100 µM (inactive) | > 100 µM (inactive) | > 100 µM | > 100 µM (inactive) | > 100 µM (inactive) | > 100 µM (inactive) | 11.6 µM (inactive) | > 100 µM (inactive) | > 100 µM (inactive) | > 100 µM (inactive) | – |
| CCOC(=O)COc1cc(-c2ccccc2)nc2cc(F)ccc12 | > 100 µM (inactive) | > 100 µM (inactive) | > 100 µM (inactive) | > 100 µM (inactive) | > 100 µM (inactive) | > 100 µM (inactive) | > 100 µM (inactive) | > 100 µM (inactive) | > 100 µM (inactive) | > 100 µM (inactive) | > 100 µM | > 100 µM (inactive) | > 100 µM (inactive) | 42 µM (inactive) | > 100 µM (inactive) | > 100 µM (inactive) | > 100 µM (inactive) | > 100 µM (inactive) | – |
| O=c1oc2ccccc2cc1-c1nc2ccccc2c(=O)[nH]1 | > 100 µM (inactive) | > 100 µM (inactive) | > 100 µM (inactive) | > 100 µM (inactive) | > 100 µM (inactive) | 12 µM (inactive) | – | > 100 µM (inactive) | > 100 µM (inactive) | > 100 µM (inactive) | > 100 µM | > 100 µM (inactive) | > 100 µM (inactive) | > 100 µM (inactive) | > 100 µM (inactive) | > 100 µM (inactive) | > 100 µM (inactive) | > 100 µM (inactive) | 21.9 µM (inactive) |
| C/C=C(/C)c1cnc(CC(C)C)c(=O)[nH]1 | > 100 µM (inactive) | > 100 µM (inactive) | > 100 µM (inactive) | > 100 µM (inactive) | > 100 µM (inactive) | – | > 100 µM (inactive) | > 100 µM (inactive) | > 100 µM (inactive) | > 100 µM (inactive) | > 100 µM | > 100 µM (inactive) | > 100 µM (inactive) | > 100 µM (inactive) | > 100 µM (inactive) | > 100 µM (inactive) | 0.35 µM (active) | > 100 µM (inactive) | – |
| COC(=O)[C@]1(C)CCC[C@@]2(C)C1CC[C@]13C=C(C(C)C)[C@H](CC21)CC3(Cl)C#N (some centres undefined) | 36.3 µM (inactive) | 37.7 µM (inactive) | 27.4 µM (inactive) | > 100 µM (inactive) | 36.1 µM (inactive) | 27.4 µM (inactive) | > 100 µM (inactive) | > 100 µM (inactive) | 37.6 µM (inactive) | 14.9 µM (inactive) | 44.7 µM | – | 19.5 µM (inactive) | 54.6 µM (inactive) | 14.1 µM (inactive) | 31.5 µM (inactive) | – | 42.2 µM (inactive) | – |
| O=c1c2cc(Br)ccc2oc2nc3n(c(=O)c12)CCCS3 | > 100 µM (inactive) | > 100 µM (inactive) | – | – | > 100 µM (inactive) | > 100 µM (inactive) | > 100 µM (inactive) | > 100 µM (inactive) | > 100 µM (inactive) | > 100 µM (inactive) | > 100 µM | > 100 µM (inactive) | > 100 µM (inactive) | > 100 µM (inactive) | 30.1 µM (inactive) | > 100 µM (inactive) | > 100 µM (inactive) | > 100 µM (inactive) | – |
| CNc1nc(N)c(N=O)c(Nc2ccc(Br)cc2)n1 | > 100 µM (inactive) | > 100 µM (inactive) | > 100 µM (inactive) | – | > 100 µM (inactive) | > 100 µM (inactive) | – | > 100 µM (inactive) | > 100 µM (inactive) | > 100 µM (inactive) | > 100 µM | > 100 µM (inactive) | > 100 µM (inactive) | – | – | 13.7 µM (inactive) | > 100 µM (inactive) | > 100 µM (inactive) | > 100 µM (inactive) |
| COc1cccc(C2SC(=N)Nc3c2c(C)nn3C(=O)c2ccccc2O)c1 (centres undefined) | > 7.1 µM (inactive) | 1.76 µM (inactive) | > 6.17 µM (inactive) | > 7.5 µM (inactive) | > 10 µM (inactive) | > 3.11 µM (inactive) | 7.78 µM (inactive) | > 3.79 µM (inactive) | > 7.14 µM (inactive) | > 2.14 µM (inactive) | > 5.7 µM | > 7.23 µM (inactive) | – | > 2.88 µM (inactive) | > 7.03 µM (inactive) | > 9.14 µM (inactive) | > 10 µM (inactive) | > 4.62 µM (inactive) | – |
| Cc1c(Cl)cccc1/N=N/C(=O)NNc1cccc(Cl)c1C | 12.8 µM (inactive) | 11.9 µM (inactive) | 20.4 µM (inactive) | – | 16.6 µM (inactive) | – | 14.4 µM (inactive) | 23.1 µM (inactive) | 17.1 µM (inactive) | 15.3 µM (inactive) | 14.3 µM | 13.6 µM (inactive) | 16.8 µM (inactive) | 12 µM (inactive) | 10.7 µM (inactive) | – | 25.5 µM (inactive) | 17.8 µM (inactive) | 17.8 µM (inactive) |
| COc1cc(/C=N/c2ccc(Oc3ccc(Cl)cc3)c(Cl)c2)cc(OC)c1OC | 23.8 µM (inactive) | 15.3 µM (inactive) | 22.2 µM (inactive) | > 10 µM (inactive) | 21.3 µM (inactive) | 29.6 µM (inactive) | – | 13.6 µM (inactive) | 34.2 µM (inactive) | 13.8 µM (inactive) | 19.5 µM | 17.8 µM (inactive) | – | 19.4 µM (inactive) | 3.53 µM (inactive) | 21.1 µM (inactive) | 18.9 µM (inactive) | 16.8 µM (inactive) | 15 µM (inactive) |
| O=C1/C(=C/c2ccc(O)cc2)NC(=S)N1CN1CCCCC1 | > 100 µM (inactive) | 42.9 µM (inactive) | 43 µM (inactive) | > 100 µM (inactive) | > 100 µM (inactive) | 21.3 µM (inactive) | 96.6 µM (inactive) | 62.2 µM (inactive) | 36.6 µM (inactive) | 45.8 µM (inactive) | 31.8 µM | > 100 µM (inactive) | 72.6 µM (inactive) | 53.3 µM (inactive) | – | > 100 µM (inactive) | 28.6 µM (inactive) | > 100 µM (inactive) | 71.6 µM (inactive) |
| CC(C)(C)C1CCC2c3c([nH]c4ccccc34)C3C(=O)N(c4ccc(C(=O)O)cc4)C(=O)C3C2C1 (centres undefined) | 0.1 µM (active) | 14.2 µM (inactive) | 12.9 µM (inactive) | 17.5 µM (inactive) | 11.3 µM (inactive) | 11 µM (inactive) | 18.2 µM (inactive) | 15.7 µM (inactive) | 13.6 µM (inactive) | 14.4 µM (inactive) | 12 µM | 14.9 µM (inactive) | 4.43 µM (inactive) | – | – | 22 µM (inactive) | 20 µM (inactive) | 15.5 µM (inactive) | 4.52 µM (inactive) |
| Cc1ccc(-c2c(C#N)c(-c3ccc(Cl)cc3)c(C#N)c(=O)n2NS(=O)(=O)c2ccccc2)cc1 | 23.4 µM (inactive) | 58.6 µM (inactive) | > 100 µM (inactive) | > 100 µM (inactive) | > 100 µM (inactive) | 51.2 µM (inactive) | 86.7 µM (inactive) | 86.5 µM (inactive) | > 100 µM (inactive) | 59 µM (inactive) | 51.6 µM | 25.7 µM (inactive) | 88.1 µM (inactive) | 37.2 µM (inactive) | – | 77.4 µM (inactive) | 18.4 µM (inactive) | > 100 µM (inactive) | 73.1 µM (inactive) |
| C[C@@H]1OC(=O)C[C@H]2CC(=O)N(CCC3CN(C(=O)OCc4ccccc4)c4ccccc43)C[C@@H]21 (some centres undefined) | > 100 µM (inactive) | > 100 µM (inactive) | > 100 µM (inactive) | > 100 µM (inactive) | > 100 µM (inactive) | > 100 µM (inactive) | > 100 µM (inactive) | > 100 µM (inactive) | > 100 µM (inactive) | > 100 µM (inactive) | > 100 µM | > 100 µM (inactive) | > 100 µM (inactive) | > 100 µM (inactive) | > 100 µM (inactive) | > 100 µM (inactive) | > 100 µM (inactive) | > 100 µM (inactive) | – |
| C/C1=C\CC[C@@]2(C)O[C@@H]2[C@H]2OC(=O)C(C)C2C[C@H]1O (some centres undefined) | – | > 100 µM (inactive) | > 100 µM (inactive) | > 100 µM (inactive) | > 100 µM (inactive) | > 100 µM (inactive) | – | > 100 µM (inactive) | > 100 µM (inactive) | > 100 µM (inactive) | > 100 µM | > 100 µM (inactive) | > 100 µM (inactive) | > 100 µM (inactive) | – | > 100 µM (inactive) | > 100 µM (inactive) | > 100 µM (inactive) | – |
| C=CN(C=C)C(=O)Cn1cc(-c2ccccc2)nn1 | > 100 µM (inactive) | – | > 100 µM (inactive) | – | > 100 µM (inactive) | > 100 µM (inactive) | – | > 100 µM (inactive) | > 100 µM (inactive) | > 100 µM (inactive) | > 100 µM | > 100 µM (inactive) | > 100 µM (inactive) | 31.1 µM (inactive) | – | > 100 µM (inactive) | > 100 µM (inactive) | > 100 µM (inactive) | > 100 µM (inactive) |
